Test results taken from publication PMC11079024, “Identification of a family of species-selective complex I inhibitors as potential anthelmintics” (Nature Communications, 2024).
Read-outs that look alike come from different tables or passages of the source.

Key:
[1] = system: L1 wild-type C. elegans; experiment: microbe, parasite or virus in culture; conditions: Caenorhabditis elegans, read-out: C. elegans KCN Survival Assay LC50, estimated from fitted dose-response curves; mean of at least two biological replicates
[2] = biological target: B. taurus (heart) complex I (Bos taurus, UniProt P03887+P17694+P42026); experiment: biochemical; assay type: biochemical; conditions: for IC50: B. taurus heart mitochondria, read-out: B. taurus Complex I IC50; for activity at 0.0001 µM / activity at 0.0005 µM / activity at 0.001 µM / activity at 0.0025 µM / activity at 0.005 µM / activity at 0.013 µM / activity at 0.025 µM / activity at 0.063 µM / activity at 0.125 µM / activity at 0.313 µM / activity at 0.625 µM / activity at 1.5 µM / activity at 3 µM / activity at 15 µM / activity at 37.5 µM / activity at 75 µM: read-out: B. taurus mitochondrial complex I activity; for Log IC50 B. taurus complex I: log10 of IC50 in µM, B. taurus mitochondria
B. taurus (heart) complex I, sequence (P03887 whole entry): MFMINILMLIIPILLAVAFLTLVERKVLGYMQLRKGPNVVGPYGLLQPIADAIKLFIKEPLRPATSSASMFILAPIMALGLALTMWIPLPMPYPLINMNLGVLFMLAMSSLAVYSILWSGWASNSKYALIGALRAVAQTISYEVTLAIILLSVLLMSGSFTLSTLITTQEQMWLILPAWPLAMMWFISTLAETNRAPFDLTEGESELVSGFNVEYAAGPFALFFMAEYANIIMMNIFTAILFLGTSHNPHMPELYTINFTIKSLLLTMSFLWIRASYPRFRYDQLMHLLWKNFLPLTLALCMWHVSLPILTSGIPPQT
B. taurus (heart) complex I, sequence (P17694 34-463): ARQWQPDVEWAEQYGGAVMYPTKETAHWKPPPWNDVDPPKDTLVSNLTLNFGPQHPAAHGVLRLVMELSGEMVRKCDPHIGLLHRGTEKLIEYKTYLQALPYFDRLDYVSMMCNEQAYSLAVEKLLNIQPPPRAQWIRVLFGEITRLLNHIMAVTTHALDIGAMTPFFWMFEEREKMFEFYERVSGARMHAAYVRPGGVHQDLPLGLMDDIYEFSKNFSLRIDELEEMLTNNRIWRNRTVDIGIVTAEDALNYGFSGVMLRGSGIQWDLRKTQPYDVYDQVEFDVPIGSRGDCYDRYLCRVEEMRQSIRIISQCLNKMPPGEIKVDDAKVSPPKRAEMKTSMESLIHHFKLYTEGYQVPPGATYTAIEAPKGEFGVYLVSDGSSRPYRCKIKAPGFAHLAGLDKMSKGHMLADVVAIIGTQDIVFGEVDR
B. taurus (heart) complex I, sequence (P42026 38-216): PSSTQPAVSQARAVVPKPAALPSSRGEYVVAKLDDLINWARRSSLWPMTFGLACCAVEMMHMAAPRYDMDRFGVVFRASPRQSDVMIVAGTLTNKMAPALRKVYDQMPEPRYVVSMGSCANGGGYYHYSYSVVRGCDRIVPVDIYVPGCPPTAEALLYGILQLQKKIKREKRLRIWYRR
How it was run: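 Complex I activity followed as DCIP reduction (600 nm, 30 s reads, 15 min) with 80 μM NADH and 60 μM decylubiquinone in 25 mM KPi pH 7.5 containing 2 μM antimycin A and 2 mM KCN. Freeze-thawed mouse or bovine heart mitochondria at 0.2 mg/mL; initial-rate percent of solvent control, single-point 100 μM or dose-response.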

[3] = biological target: C. elegans (N2) complex I (NADH:ubiquinone oxidoreductase) (Caenorhabditis elegans, UniProt P24887+Q93873+Q94360); experiment: biochemical; assay type: biochemical; conditions: for activity at 0.0001 µM / activity at 0.0005 µM / activity at 0.001 µM / activity at 0.0025 µM / activity at 0.005 µM / activity at 0.013 µM / activity at 0.025 µM / activity at 0.063 µM / activity at 0.125 µM / activity at 0.313 µM / activity at 0.625 µM / activity at 1.5 µM / activity at 3 µM / activity at 15 µM / activity at 37.5 µM / activity at 75 µM: read-out: C. elegans mitochondrial complex I activity; for Log IC50 C. elegans complex I: log10 of IC50 in µM, C. elegans mitochondria
C. elegans (N2) complex I (NADH:ubiquinone oxidoreductase), sequence (Q94360 17-199): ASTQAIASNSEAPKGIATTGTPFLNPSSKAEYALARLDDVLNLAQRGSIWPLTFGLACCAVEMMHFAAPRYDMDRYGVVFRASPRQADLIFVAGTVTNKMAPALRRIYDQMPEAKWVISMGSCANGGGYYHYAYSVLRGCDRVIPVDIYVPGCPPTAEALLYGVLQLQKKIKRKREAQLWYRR
C. elegans (N2) complex I (NADH:ubiquinone oxidoreductase), sequence (P24887 whole entry): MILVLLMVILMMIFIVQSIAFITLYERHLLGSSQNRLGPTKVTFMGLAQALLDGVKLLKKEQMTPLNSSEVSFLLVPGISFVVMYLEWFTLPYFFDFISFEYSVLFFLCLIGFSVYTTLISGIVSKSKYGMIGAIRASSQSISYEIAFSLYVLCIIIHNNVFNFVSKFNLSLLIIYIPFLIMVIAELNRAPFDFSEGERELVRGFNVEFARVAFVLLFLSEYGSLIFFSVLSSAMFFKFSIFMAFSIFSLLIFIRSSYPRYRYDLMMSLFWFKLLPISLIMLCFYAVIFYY
C. elegans (N2) complex I (NADH:ubiquinone oxidoreductase), sequence (Q93873 31-482): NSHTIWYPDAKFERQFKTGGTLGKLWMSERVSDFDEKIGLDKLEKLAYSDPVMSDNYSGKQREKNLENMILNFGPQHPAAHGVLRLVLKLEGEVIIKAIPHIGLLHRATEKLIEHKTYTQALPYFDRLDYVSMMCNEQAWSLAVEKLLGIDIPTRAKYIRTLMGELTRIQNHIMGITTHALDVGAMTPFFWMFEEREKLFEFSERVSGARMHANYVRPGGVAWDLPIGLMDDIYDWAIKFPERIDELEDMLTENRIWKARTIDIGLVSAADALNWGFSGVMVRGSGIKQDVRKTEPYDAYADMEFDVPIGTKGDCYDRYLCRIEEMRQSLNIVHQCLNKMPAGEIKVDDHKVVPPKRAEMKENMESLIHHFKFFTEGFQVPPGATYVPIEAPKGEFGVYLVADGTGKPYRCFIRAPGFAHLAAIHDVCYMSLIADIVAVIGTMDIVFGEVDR
How it was run: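 Compounds were tested against freeze-thawed isolated mitochondria (0.2 mg/mL protein). NADH:decylubiquinone activity was monitored via DCIP absorbance at 600 nm, and the initial linear slope was normalised to solvent controls.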

[4] = estimated from fitted dose-response curves
[5] = in vitro complex I dose response on C. elegans mitochondria, average of at least two biological replicates, fit in R (DRC), read-out: IC50 C. elegans complex I
[6] = wild-type C. elegans mitochondria, estimated from fitted dose-response curves, read-out: C. elegans Complex I IC50

Structure (SMILES)	LC50 [1]	IC50 [2, 4]	activity at 0.0001 µM [2]	activity at 0.0005 µM [2]	activity at 0.001 µM [2]	activity at 0.0025 µM [2]	activity at 0.005 µM [2]	activity at 0.013 µM [2]	activity at 0.025 µM [2]	activity at 0.063 µM [2]	activity at 0.125 µM [2]	activity at 0.313 µM [2]	activity at 0.625 µM [2]	activity at 1.5 µM [2]	activity at 3 µM [2]	activity at 15 µM [2]	activity at 37.5 µM [2]	Log IC50 B. taurus complex I [2]	IC50 [3, 5]	Log IC50 C. elegans complex I [3]	also measured
Cc1ccccc1OCCCn1c(C)nc2ccccc21 [Compound 7916923]	12.1 µM	6.67 µM	98.7%	101%	103%	101%	107%	99.6%	102%	104%	90.7%	96.6%	92.7%	79.4%	70.6%	24.7%	6.64%	0.82 µM	1170 nM	0.07 µM	activity at 75 µM [2]: 2.1%; activity at 0.0001 µM [3]: 94.5%; activity at 0.0005 µM [3]: 93.6%; activity at 0.001 µM [3]: 94.8%; activity at 0.0025 µM [3]: 99.1%; activity at 0.005 µM [3]: 96.8%; activity at 0.013 µM [3]: 102%; activity at 0.025 µM [3]: 94.3%; activity at 0.063 µM [3]: 89.3%; activity at 0.125 µM [3]: 86.3%; activity at 0.313 µM [3]: 78.5%; activity at 0.625 µM [3]: 65.6%; activity at 1.5 µM [3]: 42.6%; activity at 3 µM [3]: 27.6%; activity at 15 µM [3]: 7.28%; activity at 37.5 µM [3]: 4.39%; activity at 75 µM [3]: 4.47%; IC50 [3, 6]: 1170 nM
c1ccc(CCCCCCCCCCc2nc3ccccc3[nH]2)cc1 [STL442376]	5.61 µM	3.32 µM	–	–	–	–	–	–	–	–	–	–	–	–	–	–	–	0.52 µM	2330 nM	0.37 µM	IC50 [3, 6]: 2330 nM
Clc1ccc(OCCn2cnc3ccccc32)c(Cl)c1 [Compound 7221649]	13 µM	–	92.5%	88.5%	89.7%	97.8%	98.8%	94.3%	92%	90.2%	86.5%	88%	83.9%	85.6%	77.8%	33%	7.81%	1.03 µM	4190 nM	0.62 µM	IC50 [2]: 10.7 µM; activity at 75 µM [2]: 3.92%; activity at 0.0001 µM [3]: 92.4%; activity at 0.0005 µM [3]: 97.1%; activity at 0.001 µM [3]: 98.6%; activity at 0.0025 µM [3]: 106%; activity at 0.005 µM [3]: 107%; activity at 0.013 µM [3]: 101%; activity at 0.025 µM [3]: 101%; activity at 0.063 µM [3]: 94.8%; activity at 0.125 µM [3]: 93.4%; activity at 0.313 µM [3]: 89.3%; activity at 0.625 µM [3]: 84.8%; activity at 1.5 µM [3]: 71.9%; activity at 3 µM [3]: 58.5%; activity at 15 µM [3]: 22.2%; activity at 37.5 µM [3]: 11.4%; activity at 75 µM [3]: 6.54%; IC50 ([3]; wild-type C. elegans mitochondria, read-out: C. elegans Complex I IC50): 4190 nM
